# What was measured:
# [1] = biological target: Death-associated protein kinase 3 (Homo sapiens) (UniProt O43293); assay: ZIPK(h) Millipore kinase panel; conditions: Compound concentration 1.0 uM
# [2] = biological target: Death-associated protein kinase 2 (Homo sapiens) (UniProt Q9UIK4); assay: DAPK2(h) Millipore kinase panel; conditions: Compound concentration 1.0 uM
# [3] = biological target: Ephrin type-A receptor 2 (Homo sapiens) (UniProt P29317); assay: EphA2(h) Millipore kinase panel; conditions: Compound concentration 1.0 uM
# [4] = biological target: Calcium/calmodulin-dependent protein kinase kinase 2 (Homo sapiens) (UniProt Q96RR4); assay: CaMKK2(h) Millipore kinase panel; conditions: Compound concentration 1.0 uM
# [5] = biological target: MAPK/MAK/MRK overlapping kinase (Homo sapiens) (UniProt Q9UQ07); assay: MOK(h) Millipore kinase panel; conditions: Compound concentration 1.0 uM
# [6] = biological target: RAC-beta serine/threonine-protein kinase (Homo sapiens) (UniProt P31751); assay: PKBbeta(h) Millipore kinase panel; conditions: Compound concentration 1.0 uM
# [7] = biological target: Receptor-interacting serine/threonine-protein kinase 1 (Homo sapiens) (UniProt Q13546); assay: RIPK1(h) Millipore kinase panel; conditions: Compound concentration 1.0 uM
# [8] = biological target: Delta-type opioid receptor (Homo sapiens) (UniProt P41143); conditions: Compound concentration 10.0 uM
# [9] = biological target: MAP kinase-activated protein kinase 5 (Homo sapiens) (UniProt Q8IW41); assay: PRAK(h) Millipore kinase panel; conditions: Compound concentration 1.0 uM
# [10] = biological target: Muscarinic acetylcholine receptor M5 (Homo sapiens) (UniProt P08912); conditions: Compound concentration 10.0 uM
# [11] = biological target: Serine/threonine-protein kinase Nek4 (Homo sapiens) (UniProt P51957); assay: NEK4(h) Millipore kinase panel; conditions: Compound concentration 1.0 uM
# [12] = biological target: T1, Cyclin-dependent kinase 5/CDK5 activator 1 (Homo sapiens) (UniProt Q00535+Q15078); assay: CDK5/p35(h) Millipore kinase panel; type: protein-complex assay; conditions: Compound concentration 1.0 uM
# [13] = biological target: Tyrosine-protein kinase ZAP-70 (Homo sapiens) (UniProt P43403); assay: ZAP_70(h) Millipore kinase panel; conditions: Compound concentration 1.0 uM
# [14] = biological target: CDK17/Cyclin-Y (Homo sapiens) (UniProt Q00537+Q8ND76); assay: CDK17/cyclinY(h) Millipore kinase panel; type: protein-complex assay; conditions: Compound concentration 1.0 uM
# [15] = biological target: Sigma intracellular receptor 2 (Homo sapiens) (UniProt Q5BJF2); conditions: Compound concentration 10.0 uM
# [16] = biological target: LIM domain kinase 2 (Homo sapiens) (UniProt P53671); assay: LIMK2(h) Millipore kinase panel; conditions: Compound concentration 1.0 uM
# [17] = biological target: Serine/threonine-protein kinase N2 (Homo sapiens) (UniProt Q16513); assay: PRK2(h) Millipore kinase panel; conditions: Compound concentration 1.0 uM
# [18] = biological target: D(2) dopamine receptor (Homo sapiens) (UniProt P14416); conditions: Compound concentration 10.0 uM
# [19] = biological target: Monoamine oxidase A (MAO-A) (Homo sapiens, UniProt P21397); assay: Inhibition of Monoamine Oxidase MAO-A at compound concentration of 10.0 uM in the Eurofins-Panlabs enzyme assay (Eurofins_assay_140010); set-up: substrate with concentration 50 uM Kynuramine, incubation time 60 min, incubation temperature 37 C; conditions: recombinant human MAO-A expressed in insect Hi5 cells, probe Kynuramine (50 uM), compound concentration 10 uM
# [20] = biological target: Myosin light chain kinase 2, skeletal/cardiac muscle (Homo sapiens) (UniProt Q9H1R3); assay: MYLK2(h) Millipore kinase panel; conditions: Compound concentration 1.0 uM
# [21] = biological target: Mitogen-activated protein kinase kinase kinase kinase 3 (Homo sapiens) (UniProt Q8IVH8); assay: MAP4K3(h) Millipore kinase panel; conditions: Compound concentration 1.0 uM
# [22] = biological target: Serine/threonine-protein kinase PRP4 homolog (Homo sapiens) (UniProt Q13523); assay: PRP4(h) Millipore kinase panel; conditions: Compound concentration 1.0 uM
# [23] = biological target: Serine/threonine-protein kinase 4 (Homo sapiens) (UniProt Q13043); assay: MST1(h) Millipore kinase panel; conditions: Compound concentration 1.0 uM
# ATR/ATRIP (Homo sapiens) = ATR/ATRIP (Homo sapiens) (UniProt Q13535+Q8WXE1); assay: ATR/ATRIP(h) Millipore kinase panel; type: protein-complex assay; conditions: Compound concentration 1.0 uM
# [24] = biological target: GABA-A receptor; anion channel (Rattus norvegicus) (UniProt O09028+P15431+P18506+P18508+P19969+P20236+P23574+P23576+P28471+P28473+P30191+P62813+P63079+P63138+Q91ZM7+Q9ES14); conditions: Compound concentration 10.0 uM
# [25] = biological target: Eukaryotic elongation factor 2 kinase (Homo sapiens) (UniProt O00418); assay: eEF-2K(h) Millipore kinase panel; conditions: Compound concentration 1.0 uM
# [26] = biological target: Kappa-type opioid receptor (Homo sapiens) (UniProt P41145); conditions: Compound concentration 10.0 uM
# [27] = biological target: 3-hydroxy-3-methylglutaryl-coenzyme A reductase (Homo sapiens) (UniProt P04035); assay: Inhibition of HMG-CoA Reductase at compound concentration of 10.0 uM in the Eurofins-Panlabs enzyme assay (Eurofins_assay_124010); set-up: substrate with concentration; conditions: Compound concentration 10.0 uM
# [28] = biological target: T1, Cyclin-dependent kinase 5/CDK5 activator 1 (Homo sapiens); assay: CDK5/p25(h) Millipore kinase panel; type: protein-complex assay; conditions: Compound concentration 1.0 uM
# [29] = biological target: BDNF/NT-3 growth factors receptor (Homo sapiens) (UniProt Q16620); assay: TrkB(h) Millipore kinase panel; conditions: Compound concentration 1.0 uM
# [30] = biological target: Tyrosine-protein kinase Yes (Homo sapiens) (UniProt P07947); assay: Yes(h) Millipore kinase panel; conditions: Compound concentration 1.0 uM
# [31] = biological target: Tyrosine-protein kinase Fer (Homo sapiens) (UniProt P16591); assay: Fer(h) Millipore kinase panel; conditions: Compound concentration 1.0 uM
# [32] = biological target: Serine/threonine-protein kinase 38 (Homo sapiens) (UniProt Q15208); assay: NDR1(h) Millipore kinase panel; conditions: Compound concentration 1.0 uM
# [33] = biological target: Epidermal growth factor receptor (Homo sapiens) (UniProt P00533); assay: EGFR(h) Millipore kinase panel; conditions: Compound concentration 1.0 uM
# [34] = biological target: Cyclin-dependent kinase-like 3 (Homo sapiens) (UniProt Q8IVW4); assay: CDKL3(h) Millipore kinase panel; conditions: Compound concentration 1.0 uM
# [35] = biological target: Glucocorticoid receptor (Homo sapiens) (UniProt P04150); conditions: Compound concentration 10.0 uM
# D(1A) dopamine receptor [36] = biological target: T2, D(1A) dopamine receptor (Homo sapiens, UniProt P21728); conditions: Compound concentration 10.0 uM
# [37] = biological target: Activin receptor type-2A (Homo sapiens) (UniProt P27037); assay: ACTR2(h) Millipore kinase panel; conditions: Compound concentration 1.0 uM
# [38] = biological target: Insulin receptor (Homo sapiens) (UniProt P06213); conditions: Rattus norvegicus; Compound concentration 10.0 uM
# [39] = biological target: Serine/threonine-protein kinase ULK1 (Homo sapiens) (UniProt O75385); assay: ULK1(h) Millipore kinase panel; conditions: Compound concentration 1.0 uM
# [40] = biological target: Testis-specific serine/threonine-protein kinase 3 (Homo sapiens) (UniProt Q96PN8); assay: TSSK3(h) Millipore kinase panel; conditions: Compound concentration 1.0 uM
# [41] = biological target: Serine/threonine-protein kinase/endoribonuclease IRE1 (Homo sapiens) (UniProt O75460); assay: IRE1(h) Millipore kinase panel; conditions: Compound concentration 1.0 uM
# D(1A) dopamine receptor [42] = biological target: T2, D(1A) dopamine receptor; conditions: Compound concentration 10.0 uM; remark: listed apart in the source
# [43] = biological target: Tyrosine-protein kinase BTK (Homo sapiens) (UniProt Q06187); assay: BTK(h) Millipore kinase panel; conditions: Compound concentration 1.0 uM
# [44] = biological target: Histamine H1 receptor (Homo sapiens) (UniProt P35367); conditions: Compound concentration 10.0 uM
# [45] = biological target: Serine/threonine-protein kinase PLK3 (Homo sapiens) (UniProt Q9H4B4); assay: Plk3(h) Millipore kinase panel; conditions: Compound concentration 1.0 uM
structure (smiles),measurement,setting,value
CC[C@@H](Nc1c(C#N)c(-c2ccc(-c3cccc(C)c3F)cc2)nc2cnccc12)C(=O)O [BAY-091],inhibition,[1],0.91%
same,inhibition,[2],-6.79%
same,inhibition,[3],-0.55%
same,inhibition,[4],11.3%
same,inhibition,[5],5.44%
same,inhibition,[6],3.52%
same,inhibition,[7],21.2%
same,inhibition,[8],25%
same,inhibition,[9],23.6%
same,inhibition,[10],-4.26%
same,inhibition,[11],32.1%
same,inhibition,[12],-0.03%
same,inhibition,[13],2.99%
same,inhibition,[14],0.09%
same,inhibition,[15],24.6%
same,inhibition,[16],3.03%
same,inhibition,[17],5.02%
same,inhibition,[18],8%
same,"inhibition at 60 min, 10 µM",[19],7% (not active)
same,inhibition,[20],7.84%
same,inhibition,[21],8.29%
same,inhibition,[22],18.9%
same,inhibition,[23],20.6%
same,inhibition,ATR/ATRIP (Homo sapiens),16.2%
same,inhibition,[24],12%
same,inhibition,[25],5.5%
same,inhibition,[26],0.48%
same,inhibition,[27],-7%
same,inhibition,[28],6.65%
same,inhibition,[29],2.08%
same,inhibition,[30],-3.76%
same,inhibition,[31],5.23%
same,inhibition,[32],-6%
same,inhibition,[33],10.8%
same,inhibition,[34],8.18%
same,inhibition,[35],32%
same,inhibition,D(1A) dopamine receptor [36],-3.98%
same,inhibition,[37],1.17%
same,inhibition,[38],-1%
same,inhibition,[39],14.2%
same,inhibition,[40],8.88%
same,inhibition,[41],2.72%
same,inhibition,D(1A) dopamine receptor [42],15%
same,inhibition,[43],12.8%
same,inhibition,[44],27%
same,inhibition,[45],-7.76%
